Activity calls are given as the source filed them.
Tests used:
[1] = molecular target: T1, Estrogen receptor beta (Homo sapiens, UniProt Q92731);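 further: recombinant ER-beta bound to coactivator SRC1 peptide in presence of estradiol agonist; inhibitors block coactivator peptide binding and lower the FRET signal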
[2] = molecular target: T2, Sphingosine 1-phosphate receptor 2 (Homo sapiens, UniProt O95136); assay: Dose Response Cell Based Assay for Agonists of the S1P2 Receptor. [Related pubchem assays: 729, 736, 843 ]; assay type: functional
T2 sequence (O95136 whole entry): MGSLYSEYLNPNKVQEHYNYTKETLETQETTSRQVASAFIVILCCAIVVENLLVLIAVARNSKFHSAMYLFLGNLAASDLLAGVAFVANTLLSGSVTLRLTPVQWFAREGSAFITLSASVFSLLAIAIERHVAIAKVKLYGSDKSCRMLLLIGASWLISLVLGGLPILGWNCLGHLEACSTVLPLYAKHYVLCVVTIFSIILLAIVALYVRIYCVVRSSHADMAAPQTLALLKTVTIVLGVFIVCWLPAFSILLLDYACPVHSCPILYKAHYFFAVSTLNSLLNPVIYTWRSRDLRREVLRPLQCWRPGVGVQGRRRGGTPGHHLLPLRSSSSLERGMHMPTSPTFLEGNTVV

[3] = molecular target: Sphingosine 1-phosphate receptor 4 (Homo sapiens, UniProt O95977); assay: Fluorescence dose response cell-based high throughput screening assay for agonists of the Sphingosine 1-Phosphate Receptor 4 (S1P4). [Related pubchem assays: 1509 (Primary screen.), 1523 (Confirmation screen in triplicates.)]; assay type: functional
Chain of Sphingosine 1-phosphate receptor 4 (O95977 whole entry): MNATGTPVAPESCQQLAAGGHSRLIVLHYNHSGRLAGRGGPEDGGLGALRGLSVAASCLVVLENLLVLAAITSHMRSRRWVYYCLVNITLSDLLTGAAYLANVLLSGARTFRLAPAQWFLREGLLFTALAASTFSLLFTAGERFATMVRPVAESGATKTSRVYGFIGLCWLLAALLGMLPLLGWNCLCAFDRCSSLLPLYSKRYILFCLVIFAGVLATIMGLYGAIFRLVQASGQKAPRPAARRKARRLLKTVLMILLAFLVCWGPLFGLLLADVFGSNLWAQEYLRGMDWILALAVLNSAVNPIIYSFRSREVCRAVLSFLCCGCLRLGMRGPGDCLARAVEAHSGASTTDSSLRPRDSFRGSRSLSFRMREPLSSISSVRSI

[4] = molecular target: T1, Estrogen receptor beta; assay: ERβ–SRC-3 coactivator interaction inhibitors, confirmation, orthogonal assay, biochemical, ELISA, streptavidin-HRP readout (AID 1060)
[5] = molecular target: T3, Estrogen receptor (Homo sapiens, UniProt P03372);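 further: potency for inhibiting coactivator peptide recruitment to the receptor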
T3 sequence (P03372 whole entry): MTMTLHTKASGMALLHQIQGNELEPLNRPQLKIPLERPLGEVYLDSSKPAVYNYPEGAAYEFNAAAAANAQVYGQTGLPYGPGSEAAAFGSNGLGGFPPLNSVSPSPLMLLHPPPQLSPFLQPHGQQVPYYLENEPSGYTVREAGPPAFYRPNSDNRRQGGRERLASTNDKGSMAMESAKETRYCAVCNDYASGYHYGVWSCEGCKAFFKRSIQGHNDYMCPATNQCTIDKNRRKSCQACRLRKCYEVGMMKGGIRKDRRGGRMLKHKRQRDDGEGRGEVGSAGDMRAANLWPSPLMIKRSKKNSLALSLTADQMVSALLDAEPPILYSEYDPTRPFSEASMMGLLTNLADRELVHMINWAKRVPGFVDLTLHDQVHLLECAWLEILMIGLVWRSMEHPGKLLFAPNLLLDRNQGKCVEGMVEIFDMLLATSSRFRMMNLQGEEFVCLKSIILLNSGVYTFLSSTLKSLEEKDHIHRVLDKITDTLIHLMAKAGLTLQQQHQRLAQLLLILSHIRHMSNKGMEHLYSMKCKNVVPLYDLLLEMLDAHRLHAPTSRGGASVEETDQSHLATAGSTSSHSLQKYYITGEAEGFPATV

[6] = molecular target: Sphingosine 1-phosphate receptor 1 (Homo sapiens, UniProt P21453); assay: Fluorescence-based counterscreen assay for S1P4 agonists: Cell-based dose response high throughput screening assay to identify agonists of the Sphingosine 1-Phosphate Receptor 1 (S1P1). [Related pubchem assays (depositor defined):AID1509, AID1523, AID1801, AID463107, AID463118, AID463119, AID463122, AID463123, AID463129, AID463225, AID504400, AID504460]; assay type: functional
Chain of Sphingosine 1-phosphate receptor 1 (P21453 whole entry): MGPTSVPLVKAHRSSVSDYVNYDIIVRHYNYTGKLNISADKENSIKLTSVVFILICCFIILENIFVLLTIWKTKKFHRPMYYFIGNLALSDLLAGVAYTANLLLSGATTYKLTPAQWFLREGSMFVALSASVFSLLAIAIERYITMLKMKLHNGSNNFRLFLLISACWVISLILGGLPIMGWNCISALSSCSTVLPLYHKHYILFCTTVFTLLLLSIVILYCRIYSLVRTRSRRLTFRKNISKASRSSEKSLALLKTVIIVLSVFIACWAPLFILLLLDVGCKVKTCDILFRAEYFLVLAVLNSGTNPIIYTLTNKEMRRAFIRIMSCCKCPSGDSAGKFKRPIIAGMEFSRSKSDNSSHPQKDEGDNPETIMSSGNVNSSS

[7] = Luminescence Cell-Based Dose Response to Identify Activators of Luciferase Translation or Activity in H4-C Neuroglioblastoma Cells. [Related pubchem assays: 1829 (Project Summary), 1814 (Primary HTS)]; assay type: functional
[8] = Luminescence Cell-Based Dose Response HTS to Identify Activators of Luciferase Translation or Activity in H4 […] Cells. [Related pubchem assays: 1829 (Project Summary), 1814 (Primary HTS)]; assay type: functional
[9] = test system: H4; assay: Luminescence Cell-Based Dose Response HTS to Identify Activators of 5'UTR Stem-Loop Driven Prion Protein mRNA Translation in H4 Neuroglioblastoma Cells. [Related pubchem assays: 1829 (Project Summary), 1814 (Primary HTS)]; assay type: functional; settings: Homo sapiens
[10] = Luminescence Cell-Based Dose Confirmation to Identify Activators of 5'UTR Stem-Loop Driven Alpha-Synuclein mRNA Translation in H4 Neuroglioblastoma Cells. [Related pubchem assays: 1829 (Project Summary), 1814 (Primary HTS)]; assay type: functional
[11] = Luminescence Cell-Based Dose Response to Identify Activators of 5'UTR Stem-Loop Driven Prion Protein mRNA Translation in H4-C Neuroglioblastoma Cells. [Related pubchem assays: 1829 (Project Summary), 1814 (Primary HTS)]; assay type: functional
[12] = molecular target: Mitogen-activated protein kinase 10 (Homo sapiens, UniProt P53779); assay: Dose response biochemical screening assay for inhibitors of c-Jun N-Terminal Kinase 3 (JNK3). [Related pubchem assays: 746 ]
Chain of Mitogen-activated protein kinase 10 (P53779 whole entry): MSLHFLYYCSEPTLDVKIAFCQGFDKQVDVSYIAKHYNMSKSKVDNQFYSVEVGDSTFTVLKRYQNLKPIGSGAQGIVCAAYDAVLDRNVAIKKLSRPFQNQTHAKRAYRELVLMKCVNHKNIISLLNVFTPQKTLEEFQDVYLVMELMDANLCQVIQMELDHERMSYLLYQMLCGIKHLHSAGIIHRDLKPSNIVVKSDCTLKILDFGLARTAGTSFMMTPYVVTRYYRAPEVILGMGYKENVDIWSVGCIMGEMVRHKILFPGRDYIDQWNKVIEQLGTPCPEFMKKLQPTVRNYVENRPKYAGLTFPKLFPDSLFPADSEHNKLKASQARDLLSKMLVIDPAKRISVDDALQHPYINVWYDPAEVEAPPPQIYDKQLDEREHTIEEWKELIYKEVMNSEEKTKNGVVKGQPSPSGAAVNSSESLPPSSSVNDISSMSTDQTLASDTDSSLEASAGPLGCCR

[13] = molecular target: T4, Streptokinase A (Streptococcus pyogenes serotype M1, UniProt P10520); assay: S. pyogenes streptokinase expression inhibitors, potency, dose response, plasminogen activation absorbance, OD405 (AID 1914); assay type: functional, Streptococcus pyogenes M1 GAS;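 further: secreted streptokinase activity via plasminogen activation per viability signal from cell pellet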
T4 sequence (P10520 whole entry): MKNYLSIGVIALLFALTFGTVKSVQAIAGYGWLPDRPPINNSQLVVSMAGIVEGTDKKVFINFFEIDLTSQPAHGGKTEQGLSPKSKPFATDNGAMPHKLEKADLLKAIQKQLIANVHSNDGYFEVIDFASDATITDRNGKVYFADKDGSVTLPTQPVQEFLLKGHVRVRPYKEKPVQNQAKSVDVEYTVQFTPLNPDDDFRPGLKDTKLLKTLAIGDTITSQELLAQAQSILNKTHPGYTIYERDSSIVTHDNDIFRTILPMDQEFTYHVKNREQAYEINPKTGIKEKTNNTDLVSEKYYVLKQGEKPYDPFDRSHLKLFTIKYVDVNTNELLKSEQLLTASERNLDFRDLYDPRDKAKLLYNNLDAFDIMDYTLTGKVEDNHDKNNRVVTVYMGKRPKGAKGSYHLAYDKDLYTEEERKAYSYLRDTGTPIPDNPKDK

[14] = molecular target: T5, Zinc finger protein mex-5 (Caenorhabditis elegans, UniProt Q9XUB2); assay: MEX-5/TCR-2 RNA interaction inhibitors, dose response, biochemical, C. elegans, fluorescence polarization (AID 1960)
T5 sequence (Q9XUB2 whole entry): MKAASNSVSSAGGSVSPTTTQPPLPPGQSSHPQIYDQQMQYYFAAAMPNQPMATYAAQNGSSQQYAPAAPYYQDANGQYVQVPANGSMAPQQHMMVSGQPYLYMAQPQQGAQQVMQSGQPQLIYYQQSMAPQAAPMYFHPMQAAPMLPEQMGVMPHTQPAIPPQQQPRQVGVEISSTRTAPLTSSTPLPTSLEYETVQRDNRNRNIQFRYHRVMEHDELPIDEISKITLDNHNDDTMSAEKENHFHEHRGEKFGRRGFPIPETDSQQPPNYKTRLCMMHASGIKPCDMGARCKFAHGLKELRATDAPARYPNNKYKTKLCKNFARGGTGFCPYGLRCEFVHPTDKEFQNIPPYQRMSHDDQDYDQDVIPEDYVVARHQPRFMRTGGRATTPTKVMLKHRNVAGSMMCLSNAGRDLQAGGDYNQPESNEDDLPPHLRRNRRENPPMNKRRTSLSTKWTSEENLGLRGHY

[15] = molecular target: T2, Sphingosine 1-phosphate receptor 2; assay: Dose Response Cell Based Assay for Antagonists of the S1P2 Receptor. [Related pubchem assays: 856, 736 ]; assay type: functional
[16] = test system: Streptococcus sp. 'group A'; assay: growth inhibition of control SK(-) GAS strain, dose response, counter-screen for streptokinase expression inhibitor project, luminescence, kanamycin, BacTiterGlo, confirmation (AID 1900); assay type: functional, organism-based
[17] = Vero cell cytotoxicity, dose response, cytotoxicity control for Vif-APOBEC3G degradation inhibitor project, Vero cells (AID 1117358); assay type: functional; settings: Human immunodeficiency virus 1, Vero
[18] = test system: Streptococcus; assay: Group A Streptococcus viability loss, dose response, counter-screen for streptokinase expression inhibitor project, luminescence, BacTiterGlo (AID 1915); assay type: functional, organism-based;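 further: potency for reduction of bacterial viability or growth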
[19] = molecular target: T6, RNA-binding protein pos-1 (Caenorhabditis elegans, UniProt G5EF15); assay: inhibitors of POS-1/mex-3 RNA binding, dose response, biochemical, fluorescence polarization (AID 1964);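 further: purified POS-1 fused to maltose binding protein made in E. coli; potency of compounds blocking POS-1 binding to fluorescent RNA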
T6 sequence (G5EF15 whole entry): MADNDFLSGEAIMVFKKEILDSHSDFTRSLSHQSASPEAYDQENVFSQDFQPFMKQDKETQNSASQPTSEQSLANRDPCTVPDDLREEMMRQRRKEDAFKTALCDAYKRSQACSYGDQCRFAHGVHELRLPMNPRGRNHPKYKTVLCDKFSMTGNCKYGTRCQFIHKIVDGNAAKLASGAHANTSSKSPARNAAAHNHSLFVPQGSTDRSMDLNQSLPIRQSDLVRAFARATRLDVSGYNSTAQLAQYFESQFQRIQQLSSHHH

[20] = test system: Escherichia coli; assay: microbe, parasite or virus in culture
[21] = inhibitors of Vif binding to APOBEC3G peptide, primary screen, biochemical, TR-FRET, GST-Vif 1-94, biotin-A3G peptide, dose response retest (AID 1117319); assay type: functional;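 further: TR-FRET signal of purified GST-Vif binding a biotinylated A3G peptide; inhibitors lower the FRET signal by blocking Vif and A3G binding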

T1 sequence (Q92731 whole entry): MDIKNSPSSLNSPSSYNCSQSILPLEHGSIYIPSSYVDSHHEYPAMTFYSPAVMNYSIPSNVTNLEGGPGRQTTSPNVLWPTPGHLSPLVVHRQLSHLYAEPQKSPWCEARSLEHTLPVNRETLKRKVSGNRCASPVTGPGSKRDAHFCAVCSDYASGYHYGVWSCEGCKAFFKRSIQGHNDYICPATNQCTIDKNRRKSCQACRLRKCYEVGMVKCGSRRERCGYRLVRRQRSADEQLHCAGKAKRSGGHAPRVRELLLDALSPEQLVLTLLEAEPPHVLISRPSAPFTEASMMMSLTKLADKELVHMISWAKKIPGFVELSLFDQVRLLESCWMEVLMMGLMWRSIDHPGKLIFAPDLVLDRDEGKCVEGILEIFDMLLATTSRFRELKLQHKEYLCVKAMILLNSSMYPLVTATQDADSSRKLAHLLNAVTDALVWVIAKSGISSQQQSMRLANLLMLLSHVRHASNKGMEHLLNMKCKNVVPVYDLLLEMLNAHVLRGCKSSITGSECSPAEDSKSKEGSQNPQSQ

C=CCn1c(=O)c(C#N)cc2c(=O)n3ccccc3nc21
IC50 [1]: 21.1 µM (active) | EC50 [2]: 64.4 µM (not active) | EC50 [3]: 6.15 µM (active) | IC50 [4]: < 0.023 µM (not active) | IC50 [5]: 44.7 µM (not active) | EC50 [6]: 24.6 µM (inactive)

O=C(Nc1ccc2oc(=O)ccc2c1)c1cc2ccccc2o1
EC50 [7]: 0.317 µM (active) | EC50 [8]: < 0.1 µM (active) | EC50 [9]: > 120 µM (not active) | EC50 [10]: 0.304 µM (active) | EC50 [11]: 0.579 µM (active)

COc1cc(C(=O)Nc2nccs2)ccc1OCc1c(C)noc1C
IC50 [12]: > 31 µM (not active)

Cc1cccc(NC2=Nc3ccccc3N3C2=Nc2c(c(C)nn2-c2ccccc2)C3c2ccc(O)c(O)c2)c1 (stereo unspecified)
EC50 [13]: > 150 µM (not active) | EC50 [14]: 28.3 µM (active) | IC50 [15]: 4.37 µM (active) | EC50 [16]: 1.54 µM (active) | CC50 [17]: 17.4 µM (active) | EC50 [18]: 3.2 µM (active) | EC50 [19]: 46.4 µM (active)

COc1ccc(S(=O)(=O)NCCSCc2ccco2)cc1Cl
AC50 [20]: 43.2 µM (active) | IC50 [21]: > 100 µM (active)
